From the Deep4Chem optical property database
“And” between values parts separate entries of the source, which are not always exact repeats. Identical values can stand only once.

Experiment: solvent given as SMILES

CCOC(=O)CCOc1ccc(C(c2c(C)[nH]c3ccccc23)c2c(C)[nH]c3ccccc23)cc1 showed an emission maximum (in C1CCCCC1) of 328 nm, an emission maximum (in CC#N) of 348 nm and an emission maximum (in CO) of 349 nm. The emission maximum (in O) was 350 nm.
O=C1NC(=O)c2ccc3c4ccc5c6c(ccc(c7ccc1c2c73)c64)C(=O)N(c1ccc(Cl)cc1)C5=O showed an emission maximum (in CN(C)C=O) of 536 nm.
Compound NCCCCCCCCCCCCN1C(=O)c2ccc3c4ccc5c6c(ccc(c7ccc(c2c37)C1=O)c64)C(=O)N(CCCCCCCCCCCCN)C5=O has an emission maximum (in CN(C)C=O) of 537 nm.
c1ccc2c(c1)Oc1ccccc1B2c1ccc(N2c3ccccc3Oc3ccccc32)cc1 gave an emission maximum (in Cc1ccccc1) of 522 nm.
CC(C)(C)NC(=O)c1cccc2ccc3c4ccc(F)cc4c4cc(F)ccc4c3c12 gave an emission maximum (in ClCCl) of 388 nm.
Compound CC(=O)OCCOCCN1C(=O)c2cc(NCCOCCO)c3c4c(cc(NCCOCCO)c(c24)C1=O)C(=O)N(CCOCCOC(C)=O)C3=O has an emission maximum (in CO) of 641 nm, an emission maximum (in ClC(Cl)Cl) of 640 nm and an emission maximum (in O) of 657 nm.
In the case of CN(C)c1ccc(-c2cccc3nsnc23)cc1, the emission maximum (in ClCCl) is reported as 635 nm.
Compound CCCCc1ccc(-n2c3c4ccc(C(F)(F)F)cc4nc(-c4ccc(C#N)cc4)c3c3c2c2c(-c4ccc(C#N)cc4)nc4cc(C(F)(F)F)ccc4c2n3-c2ccc(CCCC)cc2)cc1 has an emission maximum (in ClC(Cl)Cl) of 499 nm.
Work on CCCCC1(CCCC)c2cc(C#Cc3ccc(C=C4c5ccccc5CCc5ccccc54)cc3)ccc2-c2ccc(C#Cc3ccc(C=C4c5ccccc5CCc5ccccc54)cc3)cc21 yielded an emission maximum (in C1CCOC1) of 406 nm.
For COCCOCCOCCOCC(COCCOCCOCCOC)Oc1cc(/C=C/c2ccc(/C=C(\C#N)C(=O)c3ccccc3)cc2)c(OC(COCCOCCOCCOC)COCCOCCOCCOC)cc1/C=C/c1ccc(/C=C(\C#N)C(=O)c2ccccc2)cc1, the emission maximum (in ClCCl) was 621 nm.
Cc1ccc2nc3c(nc2c1)c(-c1ccccc1)nn3C showed an emission maximum (in C1CCCCC1) of 472 nm, an emission maximum (in C1CCOC1) of 500 nm and an emission maximum (in CC#N) of 516 nm.
With C[C@]12SC(=O)C=C1c1nc(-c3ccc(Cl)cc3Cl)[nH]c1C1=CC(=O)S[C@@]12C the emission maximum (in CC#N) was 500 nm.
Compound CCN(CC)c1ccc(/C=C/c2cc(/C=C/c3ccc(N(CC)CC)cc3)nc(N)n2)cc1 has an emission maximum (in Cc1ccccc1) of 468 nm and an emission maximum (in ClC(Cl)Cl) of 518 nm.
With COc1cc(/C=C/c2ccccn2)c(OC)cc1C=O the emission maximum (in C1CCOC1) was 446 nm, the emission maximum (in CC#N) was 458 nm and the emission maximum (in CN(C)C=O) was 456 nm. It also gave an emission maximum (in Cc1ccccc1) of 444 nm and an emission maximum (in ClCCl) of 455 nm.
Compound F[B-]1(F)n2c(nc(-c3ccccc3)c2-c2ccccc2)-c2cccc[n+]21 has an emission maximum (in C1CCCCC1) of 517 nm, an emission maximum (in C1CCOC1) of 537 nm and an emission maximum (in C1COCCO1) of 510 nm. For the same compound, the emission maximum (in CC#N) was 543 nm and 498 nm, the emission maximum (in CCCCCC) was 510 nm and 515 nm and the emission maximum (in CO) was 525 nm and 534 nm. For the same compound, the emission maximum (in ClC(Cl)Cl) was 520 nm and 528 nm and the emission maximum (in ClCCl) was 528 nm.
Work on CCCCCCN1C(=O)c2cccc3c(-c4ccc(-c5cc(-c6ccc(C)cc6)nn5-c5ccccc5)s4)ccc(c23)C1=O yielded an emission maximum (in ClCCl) of 519 nm.
C(#Cc1nccnc1C#Cc1ccccc1)c1ccccc1 showed an emission maximum (in CC#N) of 380 nm.
Work on CC1=CC(C)=[N+]2C1=C(c1ccc(I)cc1)c1c(C)cc(C)n1[B-]2(OCc1ccccc1)OCc1ccccc1 yielded an emission maximum (in ClC(Cl)Cl) of 521.92 nm.
With CCC1=C(C)C2=C(/C=C/c3ccc(OC)cc3)c3c(C)c(CC)c(C)n3[B-](F)(F)[N+]2=C1C the emission maximum (in ClCCl) was 542 nm.
For CN(C)c1ccc2cc(C3=[O+][B-](F)(F)OC(c4ccccc4)=C3)ccc2c1, the emission maximum (in C1CCOC1) was 643 nm, the emission maximum (in CC#N) was 406 nm and the emission maximum (in CC(C)=O) was 682 nm. For the same compound, the emission maximum (in CS(C)=O) was 422 nm, the emission maximum (in Cc1ccccc1) was 573 nm and the emission maximum (in ClC(Cl)Cl) was 613 nm. For the same compound, the emission maximum (in ClCCl) was 650 nm.
In the case of CCN(CC)c1ccc(/C=C/C(=O)c2c(O)cc(C)oc2=O)cc1, the emission maximum (in CC#N) is reported as 562 nm, the emission maximum (in CCCO) is reported as 562 nm and the emission maximum (in CCO) is reported as 570 nm. It also gave an emission maximum (in CCOC(C)=O) of 545 nm, an emission maximum (in Cc1ccccc1) of 534 nm and an emission maximum (in ClCCl) of 575 nm.
In the case of CC1=[N+]2C(=c3c4c5ccccc5cc5cccc(c6cc(C)n(c36)[B-]2(F)F)c54)C=C1, the emission maximum (in C1CCOC1) is reported as 637 nm, the emission maximum (in CCCCCC) is reported as 637 nm and the emission maximum (in CO) is reported as 637 nm. For the same compound, the emission maximum (in CS(C)=O) was 639 nm, the emission maximum (in ClC(Cl)Cl) was 637 nm and the emission maximum (in ClCCl) was 638 nm.
In the case of CCCN1/C(=C\c2c(-c3ccc(N(C)C)cc3)c(=O)c2=O)C=Cc2ccccc21, the emission maximum (in C1CCCCC1) is reported as 428 nm, the emission maximum (in Cc1ccccc1) is reported as 435 nm and the emission maximum (in ClCCl) is reported as 585 nm.
With [NH-]c1cc(N)cc(-c2nc3ccccc3s2)c1 the emission maximum (in O) was 484 nm.
With N#Cc1nn(-c2cc(F)cc(F)c2)nc1N1CCCC1 the emission maximum (in CC#N) was 435 nm.
With CCCCCC(CC)C1(C(CC)CCCCC)c2ccccc2-c2ccc(C#Cc3cc(C#Cc4ccc5c(c4)C(C(CC)CCCCC)(C(CC)CCCCC)c4ccccc4-5)c4ccc5c(C#Cc6ccc7c(c6)C(C(CC)CCCCC)(C(CC)CCCCC)c6ccccc6-7)cc(C#Cc6ccc7c(c6)C(C(CC)CCCCC)(C(CC)CCCCC)c6ccccc6-7)c6ccc3c4c65)cc21 (stereo unspecified) the emission maximum (in C1CCCCC1) was 507 nm, the emission maximum (in C1CCOC1) was 513 nm and the emission maximum (in CCOC(C)=O) was 509 nm. For the same compound, the emission maximum (in CN(C)C=O) was 518 nm, the emission maximum (in Cc1ccccc1) was 513 nm and the emission maximum (in ClC(Cl)Cl) was 514 nm. For the same compound, the emission maximum (in ClCCl) was 514 nm.
O=S(=O)(O)c1cccc2cccc(Nc3ccccc3)c12 showed an emission maximum (in CCCCO) of 477 nm, an emission maximum (in CCCO) of 479 nm and an emission maximum (in CCO) of 485 nm. For the same compound, the emission maximum (in CO) was 490 nm, the emission maximum (in OCC(O)CO) was 501 nm and the emission maximum (in OCCO) was 495 nm.
In the case of CC1(C)C(/C=C/C2=C(Oc3ccc(CCN=C=S)cc3Br)C(=C/C=C3/N(CCCS(=O)(=O)[O-])c4ccccc4C3(C)C)/CCC2)=[N+](CCCS(=O)(=O)[O-])c2ccccc21, the emission maximum (in CO) is reported as 798 nm.
For CCOC(=O)C1=C(C(=O)OCC)C2(c3cc(Cl)ccc3-c3ccc(Cl)cc32)C2(/C=C/c3ccccc3)c3cc(OC)c(OC)cc3CCN12 (stereo unspecified), the emission maximum (in ClCCl) was 456 nm.
For CCC1=C(C)C(=O)n2c1cc1c(c(C)c(C(=O)OCC(C)C)n1CC(C)C)c2=O, the emission maximum (in C1CCCCC1) was 437 nm, the emission maximum (in CO) was 498 nm and the emission maximum (in CS(C)=O) was 479 nm. For the same compound, the emission maximum (in ClC(Cl)Cl) was 457 nm and the emission maximum (in c1ccccc1) was 446 nm.
CC1=N/C(=C\c2cc(N(C)C)ccc2C#N)C(=O)N1C showed an emission maximum (in C1CCOC1) of 560 nm, an emission maximum (in CC#N) of 606 nm and an emission maximum (in CCCCCC) of 492 nm.
COc1ccc(-c2cc3oc(=O)cc(C)c3cc2-c2ccc(OC)c(OC)c2)cc1OC showed an emission maximum (in C1CCOC1) of 457 nm.
In the case of CC(=O)OCCN1C(=O)c2cccc3c(Oc4ccccc4C)ccc(c23)C1=O, the emission maximum (in ClC(Cl)Cl) is reported as 419 nm.
CC1(C)c2ccccc2N(c2ccc(-c3nnc(-c4ccc(-n5c6ccccc6c6ccccc65)cc4)o3)cc2)c2ccccc21 showed an emission maximum (in Cc1ccccc1) of 460 nm and an emission maximum (in O=P(c1ccccc1)(c1ccccc1)c1ccccc1Oc1ccccc1P(=O)(c1ccccc1)c1ccccc1) of 479 nm.
Cc1cc(C)c(B(c2c(C)cc(C)cc2C)N2c3ccccc3C3(c4ccccc4-c4ccccc43)c3ccccc32)c(C)c1 showed an emission maximum (in C1CCCCC1) of 527 nm, an emission maximum (in Cc1ccccc1) of 538 nm and an emission maximum (in ClCCl) of 560 nm.
CCOC(=O)c1c2c3c(ccc(OC)c3c3cc4c(cc13)[Si](C)(C)O[Si]4(C)C)N(C)C2=O showed an emission maximum (in CC#N) of 418 nm.
CC(C)(C)c1ccc(-c2nc(-c3ccc(C(C)(C)C)cc3)nc(-c3cc(C#N)c(-n4c5ccccc5c5c6oc7ccccc7c6ccc54)c(C#N)c3)n2)cc1 showed an emission maximum (in C1CCOC1) of 504.66 nm.
In the case of F[B-]1(F)n2c(c3cccc4cccc2c43)=Nc2ccc3ccccc3[n+]21, the emission maximum (in C1CCOC1) is reported as 508 nm, the emission maximum (in CC#N) is reported as 505 nm and the emission maximum (in CCCCCC) is reported as 502 nm. The emission maximum (in Cc1ccccc1) was 511 nm and the emission maximum (in ClCCl) was 536 nm.
Work on CC(C)(C)c1cc(C(C)(C)C)c2oc3c(c2c1)C=CN1C(=O)C2=C4c5oc6c(C(C)(C)C)cc(C(C)(C)C)cc6c5C=CN4C(=O)C2=C31 yielded an emission maximum (in CN(C)C=O) of 658 nm and an emission maximum (in ClC(Cl)Cl) of 651 nm.
Cn1ccc(-n2cncn2)nc1=O showed an emission maximum (in O) of 366 nm.
CCC1=C(C)C2=C(c3cc(C(=O)Cl)cc(C4=C5C(C)=C(CC)C(C)=[N+]5[B-](F)(F)n5c(C)c(CC)c(C)c54)c3)c3c(C)c(CC)c(C)n3[B-](F)(F)[N+]2=C1C showed an emission maximum (in C1CCOC1) of 549 nm, an emission maximum (in CC#N) of 548 nm and an emission maximum (in CN(C)C=O) of 560 nm. It also gave an emission maximum (in Cc1ccccc1) of 562 nm and an emission maximum (in ClC(Cl)Cl) of 562 nm.
Work on COc1cccc(OC)c1-c1c2ccccc2c(-c2c(OC)cccc2OC)c2ccccc12 yielded an emission maximum (in C1CCCCC1) of 425 nm.
Cc1cc(-c2ccccc2)nc2c1ccc1nc(-c3ccccc3)cn12 gave an emission maximum (in CC#N) of 458 nm, an emission maximum (in CCCCOC(C)=O) of 449 nm and an emission maximum (in CCOC(C)=O) of 454 nm. For the same compound, the emission maximum (in CO) was 450 nm, the emission maximum (in ClC(Cl)Cl) was 448 nm and the emission maximum (in ClCCl) was 450 nm. It also gave an emission maximum (in c1ccccc1) of 451 nm.
In the case of c1ccc(-c2ccc(-c3ccc(-c4cc(-c5ccc(-c6ccc(-c7ccccc7)cc6)cc5)cc(-c5ccc(-c6ccc(-c7ccccc7)cc6)cc5)c4)cc3)cc2)cc1, the emission maximum (in C1COCCO1) is reported as 375 nm.
For C(#Cc1c2ccccc2c(-c2ccccc2)c2cc3ccccc3cc12)c1ccccc1, the emission maximum (in ClCCl) was 541 nm.
In the case of C[Si](C)(c1ccc2cc3ccccc3cc2c1)[Si](C)(C)c1ccc2cc3ccccc3cc2c1, the emission maximum (in C1CCCCC1) is reported as 415 nm and the emission maximum (in CC#N) is reported as 413 nm.
CCN1/C(=C\C2=C([O-])C(=C/C3=[N+](CC)c4ccccc4C3(C)C)/C2=O)C(C)(C)c2ccccc21 gave an emission maximum (in ClC(Cl)Cl) of 643 nm.
Compound Cc1cccc(-c2c3ccccc3cc3ccccc23)n1 has an emission maximum (in ClCCl) of 418 nm.
Compound CC1=CC(C)=[N+]2C1=C(c1ccc(I)cc1)c1c(C)cc(C)n1[B-]21OCCO1 has an emission maximum (in ClC(Cl)Cl) of 520.7 nm.
CN1C(=CC2=C([O-])C(=Cc3sc4ccccc4[n+]3C)C2=C(C#N)C#N)Sc2ccccc21 gave an emission maximum (in ClC(Cl)Cl) of 723 nm.
For C1=Cc2ccccc2C(=Cc2ccc(-c3ccc(C=C4c5ccccc5C=Cc5ccccc54)cc3)cc2)c2ccccc21, the emission maximum (in C1CCOC1) was 405 nm.
For CC1=CC(C)=[N+]2C1=C(c1ccccc1)c1c(C)c(-c3cccs3)c(C)n1[B-]2(F)F, the emission maximum (in CO) was 600 nm, the emission maximum (in Cc1ccccc1) was 591 nm and the emission maximum (in ClCCl) was 594 nm.
In the case of CN(C)c1ccc2c(c1)-c1ccccc1C2=O, the emission maximum (in C1CCCCC1) is reported as 491 nm, the emission maximum (in CC#N) is reported as 557 nm and the emission maximum (in CCO) is reported as 592 nm. It also gave an emission maximum (in c1ccccc1) of 526 nm.
